From US20250388756A1, “NOVEL FLUORESCENT COMPOUND, AND LIPID BILAYER DYEING METHOD AND ENDOCYTOSIS DETECTION METHOD USING SAID COMPOUND” (DOJINDO LABORATORIES, priority 2020, published 2025)

Experiments:
HeLa cells [1] = assay: Cell staining test (confocal laser microscope); assay type: cell-based; conditions: FIG. 8
Experimental: HeLa cells were seeded onto μ-slide 8 well plates (ibidi) and cultured overnight in an incubator (37° C., 5% CO2, MEM medium (containing 10% fetal bovine serum and 1% penicillin/streptomycin)).

HeLa cells [2] = assay: Endosome staining test (confocal laser microscope); assay type: cell-based; conditions: endosomes enlarged by wortmannin 100 nM, 30 minutes at 37° C., FIG. 9
Experimental: HeLa cells were seeded on μ-slide 8 well plates (ibidi) and cultured overnight in an incubator (37° C., 5% CO2 presence, MEM medium (containing 10% fetal bovine serum and 1% penicillin/streptomycin)). The medium was removed and wortmannin (100 nM: a PI-3 kinase inhibitor that hypertrophies early endosomes) diluted in MEM medium Various fluorescent compounds (Compound (3), pHrodo Dex (Thermofisher), FM1-43 (Molecular Probe)) diluted with MEM medium were added and incubated for 30 minutes at 37° C. The supernatant was removed, and the cells were incubated at 37° C. for 30 minutes. The supernatant was removed, replaced with MEM medium and observed with a confocal laser microscope. In addition, instead of adding fluorescent compounds, the same experiment was performed using HeLa cells expressing Rab5-RFP (cDNA encoding a fusion protein in which a fluorescent protein is fused to an endosomal membrane-specific protein) before addition of wortmannin. The same experiments were also performed on the control group (CTRL) without adding wortmannin.

[3] = Effect of pH on fluorescence intensity; assay type: physicochemical; conditions: 1 μmol/L in 1:1 mixture of buffer (pH 7.4, 6.5, 4) and DMSO; FIG. 7
Experimental: Compound (3) was added to a 1:1 mixture of PBS (pH 7.4), Tris-HCl buffer (pH 6.5), phthalate buffer (pH 4) and DMSO to a final concentration of 1 μmol/L and the fluorescence spectrum was measured.

Row | SMILES | localisation of fluorescent compound after leaving overnight (retention in cell membrane) (HeLa cells [1]) | staining of endosomes (membrane versus contents) (HeLa cells [2]) | change of fluorescence intensity with pH [3]
1 | CCCCCN1C(=O)c2ccc3c4cccc5c(N6CCN(CCCS(=O)(=O)O)CC6)ccc(c6ccc(c2c36)C1=O)c54 [Compound (2)] | remained in the cell membrane | – | –
2 | CCCCCN1C(=O)c2cccc3c(N4CCN(CCCS(=O)(=O)O)CC4)ccc(c23)C1=O [Compound (3)] | – | only the endosomal membrane was specifically stained | marked increase in fluorescence intensity was observed with decreasing pH
3 | O=C1c2ccc3c4cccc5cccc(c6ccc(c2c36)C(=O)N1CCCS(=O)(=O)O)c54 [Compound (1)] | remained in the cell membrane | – | –
